From patent publication US20110008465A1, “SESQUITERPENE FORMULATIONS, KITS AND METHODS OF USE THEREOF” (priority 2007, published 2011)
Structures can show the parent of a compound that is named as a salt.

What was measured:
PA-1 (ovary cancer) = test: Chou and Talalay combination assay with beta-caryophyllene; type: cell-based, human; details: anticancer drug in combination with beta-caryophyllene; Chou and Talalay CI; 48 h
Procedure: (§1) Each solution was prepared fresh and use within 1 hour after preparation.
(§2) Cells were then harvested using trypsine-EDTA. Cells were counted using a hemocytometer and resuspended in DMEM+10% FBS medium.
(§3) Proliferation assay: Increasing concentrations of the anticancer agents and/or beta-caryophyllene were added to 96-well plate (100 μL per well). The final concentration of solvent in the culture medium was maintained below 0.5% (volume/volume) to avoid solvent toxicity.
(§4) The cells were incubated for 48 h at 37° C. and 5% CO2. Cytotoxicity was assessed using the resazurin reduction test (O'Brien et al., 2000). Fluorescence was measured on an automated 96-well Fluoroskan Ascent FI™ plate reader (Labsystems) using excitation and emission wavelengths of 530 nm and 590 nm, respectively. Resazurin was then removed.
(§5) Microplates were frozen at −20° C. overnight. Plates were thawed, a volume of 100 μl of 0.01% SDS in water was added to the wells, the plates were shaken at room temperature for 3 hours and then frozen once more at −20° C. overnight. […] Plates were shaken in the dark (at room temperature) for at least 2 hours, and fluorescence was measured on an automated 96-well Fluoroskan Ascent FI™ plate reader (Labsystems) using excitation and emission wavelengths of 360 nm and 460 nm, respectively.
(§6) Results were analyzed using the Chou and Talalay method (9) and may be interpreted as follow: Cl>1 represents an antagonist effect of beta-caryophyllene with the corresponding anticancer agent; Cl=1 represents an additive effect of beta-caryophyllene with the corresponding anticancer agent; Cl<1 represents a potentiating effect of beta-caryophyllene with the corresponding anticancer agent.

A-549 (lung cancer) = test: as above; type: cell-based, human; details: anticancer drug in combination with beta-caryophyllene; Chou and Talalay CI; 48 h
Procedure: as §1, §2, §3, §4, §5, §6

MCF-7 (breast cancer) = test: as above; type: cell-based, human; details: anticancer drug in combination with beta-caryophyllene; Chou and Talalay CI; 48 h
Procedure: as §1, §2, §3, §4, §5, §6

[1] = test system: MDA-MB-231 (breast cancer); test: as above; type: cell-based, human; details: anticancer drug in combination with beta-caryophyllene; Chou and Talalay CI; 48 h
Procedure: as §1, §2, §3, §4, §5, §6

DLD-1 (colon cancer) = test: as above; type: cell-based, human; details: anticancer drug in combination with beta-caryophyllene; Chou and Talalay CI; 48 h
Procedure: as §1, §2, §3, §4, §5, §6

PC-3 (prostate cancer) = test: as above; type: cell-based, human; details: anticancer drug in combination with beta-caryophyllene; Chou and Talalay CI; 48 h
Procedure: as §1, §2, §3, §4, §5

[2] = test system: U-251 (human glioblastoma); test: as above; type: cell-based; details: anticancer drug in combination with beta-caryophyllene; Chou and Talalay CI; 48 h
Procedure: as §1, §2, §3, §4, §5, §6

MEL-2 (human melanoma) = test: as above; type: cell-based; details: anticancer drug in combination with beta-caryophyllene; Chou and Talalay CI; 48 h
Procedure: as §1, §2, §3, §4, §5, §6

[3] = test system: GL-261 (murine glioblastoma); test: as above; type: cell-based; details: anticancer drug in combination with beta-caryophyllene; Chou and Talalay CI; 48 h
Procedure: as §1, §2, §3, §4, §5, §6

B16 (murine melanoma) = test: as above; type: cell-based; details: anticancer drug in combination with beta-caryophyllene; Chou and Talalay CI; 48 h
Procedure: as §1, §2, §3, §4, §5, §6

tumor cell lines = test: Comparative potentiating effect of beta-caryophyllene and Tesmilifene (DPPE) combined with 5 antitumor classes; type: cell-based
Procedure: as §1, §2, §3, §4, §5, §6

## N.N.[Cl][Pt][Cl] [Cisplatine, Cisplatin]
PA-1 (ovary cancer)
  Potentiating activity PA-1: (2) (High: CI < 0.5 to IC50)
A-549 (lung cancer)
  Potentiating activity A-549: (2) (High: CI below 0.5 at IC50)
MCF-7 (breast cancer)
  Potentiating activity MCF-7: (2) (High: CI below 0.5 at IC50)
[1]
  Potentiating activity MDA: (3) (Moderate: 0.5 < CI < 0.8 at IC50)
DLD-1 (colon cancer)
  Potentiating activity DLD-1: (1) (Very High: CI equal or below 1 at IC20 and Cl below 0.6 to IC50)
PC-3 (prostate cancer)
  Potentiating activity PC-3: (6) (Antagonist effect: CI > 1)
[2]
  Potentiating activity U-251: (6) (Antagonist effect: CI > 1)
MEL-2 (human melanoma)
  Potentiating activity MEL-2: (1) (Very High: potentiating or additive activity to IC20 and CI < 0.6 to IC50)
[3]
  Potentiating activity GL-261: (6) (Antagonist effect: CI > 1)
B16 (murine melanoma)
  Potentiating activity B16: (1) (Very High: potentiating or additive activity to IC20 and CI < 0.6 to IC50)

## CCN(CC)CCOc1ccc(Cc2ccccc2)cc1 [DPPE, Tesmilifene]
Tumor cell lines; class (1) Very High
  Alkylating agents %: 25%
  Alkylating agents Total (60): 15
  Antimitotic agents %: 25%
  Antimitotic agents Total (40): 10
  RNA/DNA antimetabolites %: 30%
  RNA/DNA antimetabolites Total (20): 6
  Topoisomerase II inhibitors %: 18%
  Topoisomerase II inhibitors Total (40): 7
  kinase inhibitors %: 30%
  kinase inhibitors Total (20): 6
Tumor cell lines; class (2) High
  Alkylating agents %: 20%
  Alkylating agents Total (60): 12
  Antimitotic agents %: 20%
  Antimitotic agents Total (40): 8
  RNA/DNA antimetabolites %: 15%
  RNA/DNA antimetabolites Total (20): 3
  Topoisomerase II inhibitors %: 13%
  Topoisomerase II inhibitors Total (40): 5
  kinase inhibitors %: 25%
  kinase inhibitors Total (20): 5
Tumor cell lines; class (3) Moderate
  Alkylating agents %: 23%
  Alkylating agents Total (60): 14
  Antimitotic agents %: 30%
  Antimitotic agents Total (40): 12
  RNA/DNA antimetabolites %: 15%
  RNA/DNA antimetabolites Total (20): 3
  Topoisomerase II inhibitors %: 30%
  Topoisomerase II inhibitors Total (40): 12
  kinase inhibitors %: 45%
  kinase inhibitors Total (20): 9
Tumor cell lines; class (4) Weak
  Alkylating agents %: 10%
  Alkylating agents Total (60): 6
  Antimitotic agents %: 15%
  Antimitotic agents Total (40): 6
  RNA/DNA antimetabolites %: 10%
  RNA/DNA antimetabolites Total (20): 2
  Topoisomerase II inhibitors %: 10%
  Topoisomerase II inhibitors Total (40): 4
  kinase inhibitors %: 0%
  kinase inhibitors Total (20): 0
Tumor cell lines; class (5) Additive effect
  Alkylating agents %: 5%
  Alkylating agents Total (60): 3
  Antimitotic agents %: 0%
  Antimitotic agents Total (40): 0
  RNA/DNA antimetabolites %: 0%
  RNA/DNA antimetabolites Total (20): 0
  Topoisomerase II inhibitors %: 5%
  Topoisomerase II inhibitors Total (40): 2
  kinase inhibitors %: 0%
  kinase inhibitors Total (20): 0
Tumor cell lines; class (6) Antagonist effect
  Alkylating agents %: 17%
  Alkylating agents Total (60): 10
  Antimitotic agents %: 10%
  Antimitotic agents Total (40): 4
  RNA/DNA antimetabolites %: 30%
  RNA/DNA antimetabolites Total (20): 6
  Topoisomerase II inhibitors %: 25%
  Topoisomerase II inhibitors Total (40): 10
  kinase inhibitors %: 0%
  kinase inhibitors Total (20): 0
Tumor cell lines; drugs tested at their IC50 values
  drugs exhibiting a potentiating effect when combined: 81%

## CN(C)/N=N/c1[nH]cnc1C(N)=O [Dacarbazine, dacarbazine]
PA-1 (ovary cancer)
  Potentiating activity PA-1: (1) (Very High: potentiating or additive activity to IC20 and CI < 0.6 to IC50)
A-549 (lung cancer)
  Potentiating activity A-549: (2) (High: CI below 0.5 at IC50)
MCF-7 (breast cancer)
  Potentiating activity MCF-7: (1) (Very High: CI equal or below 1 at IC20 and Cl below 0.6 to IC50)
[1]
  Potentiating activity MDA: (1) (Very High: CI equal or below 1 at IC20 and Cl below 0.6 to IC50)
DLD-1 (colon cancer)
  Potentiating activity DLD-1: (3) (Moderate: 0.5 < CI < 0.8 at IC50)
PC-3 (prostate cancer)
  Potentiating activity PC-3: (4) (Weak: 0.8 < CI < 1 to IC50)
[2]
  Potentiating activity U-251: (1) (Very High: potentiating or additive activity to IC20 and CI < 0.6 to IC50)
MEL-2 (human melanoma)
  Potentiating activity MEL-2: (1) (Very High: potentiating or additive activity to IC20 and CI < 0.6 to IC50)
[3]
  Potentiating activity GL-261: (2) (High: CI < 0.5 to IC50)
B16 (murine melanoma)
  Potentiating activity B16: (1) (Very High: potentiating or additive activity to IC20 and CI < 0.6 to IC50)

## COc1cccc2c1C(=O)c1c(O)c3c(c(O)c1C2=O)C[C@@](O)(C(=O)CO)C[C@@H]3O[C@H]1C[C@H](N)[C@H](O)[C@H](C)O1 [Doxorubicin, doxorubicin hydrochloride]
PA-1 (ovary cancer)
  Potentiating activity PA-1: (1) (Very High: potentiating or additive activity to IC20 and CI < 0.6 to IC50)
A-549 (lung cancer)
  Potentiating activity A-549: (2) (High: CI below 0.5 at IC50)
MCF-7 (breast cancer)
  Potentiating activity MCF-7: (1) (Very High: CI equal or below 1 at IC20 and Cl below 0.6 to IC50)
[1]
  Potentiating activity MDA: (3) (Moderate: 0.5 < CI < 0.8 at IC50)
DLD-1 (colon cancer)
  Potentiating activity DLD-1: (4) (Weak: 0.8 < CI < 1 at IC50)
PC-3 (prostate cancer)
  Potentiating activity PC-3: (4) (Weak: 0.8 < CI < 1 to IC50)
[2]
  Potentiating activity U-251: (1) (Very High: potentiating or additive activity to IC20 and CI < 0.6 to IC50)
MEL-2 (human melanoma)
  Potentiating activity MEL-2: (1) (Very High: potentiating or additive activity to IC20 and CI < 0.6 to IC50)
[3]
  Potentiating activity GL-261: (3) (Moderate: 0.5 < CI < 0.8 to IC50)
B16 (murine melanoma)
  Potentiating activity B16: (1) (Very High: potentiating or additive activity to IC20 and CI < 0.6 to IC50)
